# Measurements reported in patent US20260022142A1, “MACROCYCLIC IMMUNOMODULATORS” (Bristol-Myers Squibb Company, priority 2022, published 2026).
# Numbered stars: 1 amine (or outer) side, 2 acyl side, 3 side chain; on linkers, the order of the positions; unused ones are H or OH. Bridge positions count the residues as written; N and C are the ends. Square brackets hold non-standard residues; d marks the D form. Peptide text beside a SMILES is read from it. * marks the point of attachment. ξ: configuration not given here. Bip = N[C@@H](Cc1ccc(-c2ccccc2)cc1)C(=O)O; Tyr(3-Me) = Cc1cc(C[C@H](N)C(=O)O)ccc1O; Phe(3-Me) = Cc1cccc(C[C@H](N)C(=O)O)c1; NMeAEEA = CN(CCOCCOCC(=O)[*:2])[*:1]; Cha = N[C@@H](CC1CCCCC1)C(=O)O; Cit = NC(=O)NCCC[C@H](N)C(=O)O; Thr(3ξ) = CC(O)[C@H](N)C(=O)O; Carboxymethyl = O=C(O)C*; Orn = NCCC[C@H](N)C(=O)O; Aun = NCCCCCCCCCCC(=O)O; Dab = NCC[C@H](N)C(=O)O; Dap = NC[C@H](N)C(=O)O; AEEA = NCCOCCOCC(=O)O
# Target: T1, PD-1/PD-L1 interaction (PE-labeled human PD-L1-Ig binding to Jurkat cell line over-expressing human PD-1) (Homo sapiens, UniProt Q15116)
# T1 construct: expressed in transfected cells; host or cells: Jurkat
# T1 sequence (Q15116 25-288): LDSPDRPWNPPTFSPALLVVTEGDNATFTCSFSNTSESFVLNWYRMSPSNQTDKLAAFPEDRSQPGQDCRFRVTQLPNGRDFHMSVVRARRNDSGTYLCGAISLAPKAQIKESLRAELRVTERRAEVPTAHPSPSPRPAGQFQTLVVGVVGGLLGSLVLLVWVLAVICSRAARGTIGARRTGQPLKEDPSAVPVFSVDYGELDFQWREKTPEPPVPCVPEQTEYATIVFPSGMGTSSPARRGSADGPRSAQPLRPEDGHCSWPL
# Assay: Jurkat-PD-1 Cell Binding High-Content Screening Assay (CBA)
# Assay type: cell-based
# Conditions: Jurkat cell line over-expressing human PD-1; PE-labeled PD-L1-Ig 20 nM final; read-out: Jurkat hPD1-PDL1 IC50
# In short: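 Binding of fluorescent PD-L1-Ig (phycoerythrin on Ig tag, 20 nM final, 1 h) measured by high-content imaging of fixed, Hoechst-counterstained Jurkat-hPD-1 cells. Compound added 2 h at 37° C beforehand, in DMEM with 10% fetal calf serum.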
row,SMILES,IC50
1,CC(C)C[C@H]1NC(=O)[C@H](CCCN)NC(=O)[C@H](C(C)C)NC(=O)[C@H](Cc2ccc(-c3ccccc3)cc2)NC(=O)[C@H](C(C)C)NC(=O)[C@H](Cc2c[nH]c3ccccc23)NC(=O)[C@H](CC(=O)O)NC(=O)[C@H](Cc2ccc(OCC(=O)O)cc2)NC(=O)[C@H](CN)NC(=O)CSC[C@@H](C(=O)NCCOCCOCC(=O)N[C@H](C)C(=O)NCCCCCCCCCCC(=O)O)NC(=O)[C@H]([C@@H](C)O)NC(=O)[C@H](C(C)C)NC(=O)[C@H](CC2CCCCC2)NC(=O)[C@H](Cc2cnc[nH]2)NC1=O [Compound 1127] ({CH2CO}-[Dap]Y(Carboxymethyl)DWV[Bip]V[Orn][dL]H[Cha]VTC[AEEA][dA][Aun]-OH; thioether N-14),0.0256 µM
2,CC[C@H](C)[C@@H]1NC(=O)[C@H](Cc2ccc(-c3ccccc3)cc2)NC(=O)[C@H](C(C)C)NC(=O)[C@H](Cc2c[nH]c3ccccc23)NC(=O)[C@H](CC(=O)O)NC(=O)[C@H](Cc2ccc(OCC(=O)O)cc2)NC(=O)[C@H](Cc2ccc(OCC(=O)O)cc2)NC(=O)CSC[C@@H](C(=O)NCCOCCOCC(=O)N[C@@H](CCN)C(=O)NCCCCCCCCCCC(=O)O)NC(=O)[C@H](CCCNC(=N)N)NC(=O)[C@H](C(C)C)NC(=O)[C@H](CC2CCCCC2)NC(=O)[C@H](CCN)NC(=O)[C@@H](CC(C)C)NC(=O)[C@H](CCCN)NC1=O [Compound 2656] ({CH2CO}-Y(Carboxymethyl)Y(Carboxymethyl)DWV[Bip]I[Orn][dL][Dab][Cha]VRC[AEEA][Dab][Aun]-OH; thioether N-14),0.0082 µM
3,Cc1cccc(C[C@@H]2NC(=O)[C@H](CC(=O)O)NC(=O)[C@H](Cc3ccc(OCC(=O)O)cc3)NC(=O)[C@H](CN)NC(=O)CSC[C@@H](C(=O)N[C@@H](CCN)C(=O)NCCCCCCCCCCC(=O)O)NC(=O)[C@H](CO)NC(=O)[C@H](C(C)C)NC(=O)[C@H](CC3CCCCC3)NC(=O)[C@H](CCN)NC(=O)[C@@H](CC(C)C)NC(=O)[C@H](CCCN)NC(=O)[C@H](Cc3ccc(O)cc3)NC(=O)[C@H](Cc3ccc(-c4ccccc4)cc3)NC(=O)[C@H](Cc3ccc(O)cc3)NC2=O)c1 [Compound 2712] ({CH2CO}-[Dap]Y(Carboxymethyl)D[Phe(3-Me)]Y[Bip]Y[Orn][dL][Dab][Cha]VSC[Dab][Aun]-OH; thioether N-14),0.0206 µM
4,CC(C)C[C@H]1NC(=O)[C@H](CCCN)NC(=O)[C@H](C(C)C)NC(=O)[C@H](Cc2ccc(-c3ccccc3)cc2)NC(=O)[C@H](C(C)C)NC(=O)[C@H](Cc2c[nH]c3ccccc23)NC(=O)[C@H](CC(=O)O)NC(=O)[C@H](Cc2ccc(OCC(=O)O)cc2)NC(=O)[C@H](Cc2ccc(OCC(=O)O)cc2)NC(=O)CSC[C@@H](C(=O)N[C@@H](CCN)C(=O)NCCOCCOCC(=O)NCCCCCCCCCCC(=O)O)NC(=O)[C@H](CCCNC(=N)N)NC(=O)[C@H](C(C)C)NC(=O)[C@H](CC2CCCCC2)NC(=O)[C@H](CCN)NC1=O [Compound 2548] ({CH2CO}-Y(Carboxymethyl)Y(Carboxymethyl)DWV[Bip]V[Orn][dL][Dab][Cha]VRC[Dab][AEEA][Aun]-OH; thioether N-14),0.0116 µM
5,Cc1cc(C[C@@H]2NC(=O)[C@H](CC(=O)O)NC(=O)[C@H](Cc3ccc(OCC(=O)O)cc3)NC(=O)[C@H](CN)NC(=O)CSC[C@@H](C(=O)N[C@@H](CCN)C(=O)NCCCCCCCCCCC(=O)O)NC(=O)[C@H]([C@@H](C)O)NC(=O)[C@H](C(C)C)NC(=O)[C@H](CC3CCCCC3)NC(=O)[C@H](CCN)NC(=O)[C@@H](CC(C)C)NC(=O)[C@H](CCCN)NC(=O)[C@H](Cc3ccc(OCC(=O)O)cc3)NC(=O)[C@H](Cc3ccc(-c4ccccc4)cc3)NC(=O)[C@H](Cc3ccc(O)cc3)NC2=O)ccc1O [Compound 2108] ({CH2CO}-[Dap]Y(Carboxymethyl)D[Tyr(3-Me)]Y[Bip]Y(Carboxymethyl)[Orn][dL][Dab][Cha]VTC[Dab][Aun]-OH; thioether N-14),0.021 µM

# Next, values leading:
row,IC50,SMILES
1,0.14 µM,Cc1cccc(C[C@@H]2NC(=O)[C@H](CC(=O)O)NC(=O)[C@H](Cc3ccc(OCC(=O)O)cc3)NC(=O)[C@H](C(C)O)NC(=O)CSC[C@@H](C(=O)N(C)CCOCCOCC(=O)NCCCCCCCCCCC(=O)O)NC(=O)[C@H](CCCN)NC(=O)[C@H](C(C)C)NC(=O)[C@H](CC3CCCCC3)NC(=O)[C@H](CCN)NC(=O)[C@@H](CC(C)C)NC(=O)[C@H](CCN)NC(=O)[C@H](C(C)C)NC(=O)[C@H](Cc3ccc(-c4ccccc4)cc3)NC(=O)[C@H](C(C)C)NC2=O)c1 (stereo partly drawn) [Compound 3353] ({CH2CO}-[Thr(3ξ)]Y(Carboxymethyl)D[Phe(3-Me)]V[Bip]V[Dab][dL][Dab][Cha]V[Orn]C[NMeAEEA][Aun]-OH; thioether N-14)
2,0.0079 µM,Cc1cccc(C[C@@H]2NC(=O)[C@H](CC(=O)O)NC(=O)[C@H](Cc3ccc(OCC(=O)O)cc3)NC(=O)[C@H](CCCNC(=N)N)NC(=O)CSC[C@@H](C(=O)N[C@@H](CCN)C(=O)NCCCCCCCCCCC(=O)O)NC(=O)[C@H](CCCN)NC(=O)[C@H](C(C)C)NC(=O)[C@H](CC3CCCCC3)NC(=O)[C@H](CCN)NC(=O)[C@@H](CC(C)C)NC(=O)[C@H](CCCN)NC(=O)[C@H](CCCNC(N)=O)NC(=O)[C@H](Cc3ccc(-c4ccccc4)cc3)NC(=O)[C@H](C(C)C)NC2=O)c1 [Compound 3306] ({CH2CO}-RY(Carboxymethyl)D[Phe(3-Me)]V[Bip][Cit][Orn][dL][Dab][Cha]V[Orn]C[Dab][Aun]-OH; thioether N-14)
3,0.629 µM,CC(C)C[C@H]1NC(=O)[C@H](CCCN)NC(=O)[C@H](Cc2ccc(O)cc2)NC(=O)[C@H](Cc2ccc(-c3ccccc3)cc2)NC(=O)[C@H](Cc2ccc(O)cc2)NC(=O)[C@H](Cc2c[nH]c3ccccc23)NC(=O)[C@H](CC(=O)O)NC(=O)[C@H](Cc2ccc(OCC(=O)O)cc2)NC(=O)[C@H](C(C)O)NC(=O)CSC[C@@H](C(=O)N[C@@H](CCN)C(=O)NCCCCCCCCCCC(=O)O)NC(=O)[C@H](CN)NC(=O)[C@H](C(C)O)NC(=O)[C@H](CC2CCCCC2)NC(=O)[C@H](Cc2cnc[nH]2)NC1=O (stereo partly drawn) [Compound 3695] ({CH2CO}-[Thr(3ξ)]Y(Carboxymethyl)DWY[Bip]Y[Orn][dL]H[Cha][Thr(3ξ)][Dap]C[Dab][Aun]-OH; thioether N-14)
4,0.0025 µM,Cc1cccc(C[C@@H]2NC(=O)[C@H](CC(=O)O)NC(=O)[C@H](Cc3ccc(OCC(=O)O)cc3)NC(=O)[C@H](CCN)NC(=O)CSC[C@@H](C(=O)N[C@@H](CCN)C(=O)NCCOCCOCC(=O)NCCCCCCCCCCC(=O)O)NC(=O)[C@H](CC(=O)O)NC(=O)[C@H](C(C)C)NC(=O)[C@H](CC3CCCCC3)NC(=O)[C@H](CCN)NC(=O)[C@@H](CC(C)C)NC(=O)[C@H](CCCN)NC(=O)[C@H](Cc3ccc(OCC(=O)O)cc3)NC(=O)[C@H](Cc3ccc(-c4ccccc4)cc3)NC(=O)[C@H](Cc3ccc(OCC(=O)O)cc3)NC2=O)c1 [Compound 3801] ({CH2CO}-[Dab]Y(Carboxymethyl)D[Phe(3-Me)]Y(Carboxymethyl)[Bip]Y(Carboxymethyl)[Orn][dL][Dab][Cha]VDC[Dab][AEEA][Aun]-OH; thioether N-14)
